“Also recorded” adds a separate entry of the source.
Assays:
[1] = test system: AMPA, kainate, GluN1/GluN3, GABA, glycine, nicotinic, purinergic P2X receptors; test: Off-target actions, summary in words; format: cell-based; details: 1 μM
Procedure: By contrast, the other enantiomer (R)-(+)-2i had lower potency and produced shallow, incomplete inhibition (Figure S11).
(§1) Analysis of Off-target Actions
(§2) Compound (S)-(-)-2i was tested at 1 µM for actions at glycine-activated GluN1/GluN3A (human GluN1-F484A,T518L/GluN3A referred to a GluN1-FA,TL/GluN3A) and rat GluN1-4a/GluN3B in the presence of 0.5 µM CGP-78608. cRNA injection ratios for GluN1/GluN3 were 1:2. Compound (S)-(-)- 2i was also tested for actions at AMPA (rat GluA1, rat GluA2, human GluA3-L531Y), kainate (rat GluK2), nicotinic acetylcholine (rat α7 and α4β2, cRNA ratio 1:1), GABAA (rat α1β2γ2S, cRNA ratio 1:1:1), GABAC (rat ρ1), glycine (rat α1), and purinergic (human P2X) receptors expressed in Xenopus oocytes. cRNA encoding the receptor subunits was synthesized from linear template cDNA using the mMessage mMachine kit (Ambion). Oocytes were injected with 1-5 ng cRNA in a 50 nL volume and incubated in Barth's solution at 15°C for 2-5 days prior to recording. GluK2-expressing oocyte were incubated in 1 mg/ml (10 µM) concanavalin-A for 10 min prior to recording. The cDNAs encoding GABAC and glycine subunits were provided by Dr. D. Weiss (University of Texas Health Science Center at San Antonio). cDNAs encoding nicotinic acetylcholine receptor subunits were provided by Drs. […]
(§3) GABA. […] Responses in presence of test compound were expressed as a percent of control. […]

α1-Glycine = biological target: T1, α1-Glycine (Rattus norvegicus, UniProt P07727); test: Off-target, oocytes, glycine receptor; format: cell-based; details: 1 µM compound; 100 µM glycine
T1 construct: expressed in transfected cells; host or cells: Xenopus oocytes (cRNA injection)
T1 sequence (P07727 29-457): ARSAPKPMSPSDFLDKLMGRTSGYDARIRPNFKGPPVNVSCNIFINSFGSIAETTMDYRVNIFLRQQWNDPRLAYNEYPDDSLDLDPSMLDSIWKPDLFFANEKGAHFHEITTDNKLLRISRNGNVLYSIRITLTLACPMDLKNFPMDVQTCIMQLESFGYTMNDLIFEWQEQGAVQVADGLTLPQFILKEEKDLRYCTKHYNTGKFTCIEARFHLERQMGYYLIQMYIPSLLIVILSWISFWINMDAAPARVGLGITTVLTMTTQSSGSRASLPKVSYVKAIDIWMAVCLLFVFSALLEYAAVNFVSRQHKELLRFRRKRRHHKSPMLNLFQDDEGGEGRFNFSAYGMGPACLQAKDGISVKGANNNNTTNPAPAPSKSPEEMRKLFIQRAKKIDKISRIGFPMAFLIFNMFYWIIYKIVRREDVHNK
Procedure: as §1, §2, §3

## O=C(O)CC(F)(F)C(=O)N1N=C(c2c(-c3ccc(Cl)cc3)c3ccccc3[nH]c2=O)C[C@H]1c1ccc(Cl)cc1 [(S)-(−)-2i]
[1]
  off-target actions: no effects; also recorded: no activity
α1-Glycine
  % control α1-Glycine: 103 ± 2.4%

Source: PMC10485906, “Development of a Dihydroquinoline–Pyrazoline GluN2C/2D-Selective Negative Allosteric Modulator of the N-Methyl-D-aspartate Receptor” (ACS Chemical Neuroscience, 2023)
